Test results as given in article PMC5674802 (Molecular cell, 2017).

Target: RagA-RagC heterodimer, RagC nucleotide site (Homo sapiens, UniProt Q9HB90)
Experiment: UV crosslinking of radiolabelled nucleotide, SDS-PAGE autoradiography
Format: binding

Chain of RagA-RagC heterodimer, RagC nucleotide site (Q9HB90 2-399): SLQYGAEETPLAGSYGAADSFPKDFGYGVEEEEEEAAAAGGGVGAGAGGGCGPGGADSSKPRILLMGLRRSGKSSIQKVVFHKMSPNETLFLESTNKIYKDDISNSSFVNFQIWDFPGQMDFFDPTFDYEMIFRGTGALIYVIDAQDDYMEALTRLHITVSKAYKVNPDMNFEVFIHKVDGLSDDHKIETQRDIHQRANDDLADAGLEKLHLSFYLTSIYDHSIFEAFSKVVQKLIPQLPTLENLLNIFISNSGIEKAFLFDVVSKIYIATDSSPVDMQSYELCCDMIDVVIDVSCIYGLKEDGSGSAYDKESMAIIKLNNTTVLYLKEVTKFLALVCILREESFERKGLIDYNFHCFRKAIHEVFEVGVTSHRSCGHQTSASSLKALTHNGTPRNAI
Chain of RagA-RagC heterodimer, RagC nucleotide site (Q7L523 whole entry partner): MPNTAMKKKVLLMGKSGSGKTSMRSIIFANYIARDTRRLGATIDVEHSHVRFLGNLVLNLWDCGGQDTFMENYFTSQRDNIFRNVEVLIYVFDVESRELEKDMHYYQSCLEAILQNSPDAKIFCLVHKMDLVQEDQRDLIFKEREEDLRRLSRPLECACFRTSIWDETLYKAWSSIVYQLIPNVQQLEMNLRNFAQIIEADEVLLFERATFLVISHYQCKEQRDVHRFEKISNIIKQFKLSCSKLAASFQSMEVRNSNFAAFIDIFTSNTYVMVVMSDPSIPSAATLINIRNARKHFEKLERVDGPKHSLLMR

SMILES: Nc1nc2c(ncn2[C@@H]2O[C@H](COP(=O)(O)OP(=O)(O)OP(=O)(O)O)[C@@H](O)[C@H]2O)c(=O)[nH]1 [GTP]
- Kd: 0.011 µM
